Tested on: Fmr1 knockout mice
Experiment: 3 chamber test in Fmr1 knockout mice
Assay type: in vivo
Details: single subcutaneous administration, low dose of less than 1/10 of 1 mg/kg
Excerpt: It is known that patients with human fragile X syndrome (FXS), which is caused by abnormalities of the X chromosome, present with social impairment symptoms, such as those often seen in ASD (Non-patent Documents 7 to 9). The Fmr1 knockout mouse (Cell, 1994, 15; 78 (1): 23-33) is a model mouse that mimics human fragile X syndrome (FXS), and is also widely used as a model of ASD. Buprenorphine hydrochloride, a MOR partial agonist used as an analgesic, and physiological saline of a solvent were administered once, and the action on social dysfunction of Fmr1 knockout mice was examined. The dose was calculated as a free form for buprenorphine. As a social function evaluation, a 3 chamber test (Nature Medicine, 2017, 23; p674-677) was used. In the 3chamber test, two types of mice (Unfamiliar and Familiar) are placed in cups at both left and right ends of three compartments, and a ratio of time to search for a mouse with high novelty to a mouse with low novelty is calculated and quantified as social function (preference to a mouse with high novelty).

CO[C@]12CC[C@@]3(C[C@@H]1[C@](C)(O)C(C)(C)C)[C@H]1Cc4ccc(O)c5c4[C@@]3(CCN1CC1CC1)[C@H]2O5 [buprenorphine, 21-cyclopropyl-7-a-[(S)-1-hydroxy-1,2,2-trimethylpropyl]-6,14-endo-ethano-6,7,8,14 tetrahydrooripavine]
improvement effect in social impairment (3 chamber test): significant improvement effect in social impairment

From patent US20250073226A1, “USE OF OPIOID FOR TREATMENT OF AUTISM SPECTRUM DISORDERS” (priority 2021, published 2025)
